Experimental data published in patent US8349880B2, “Bicyclic compounds for the reduction of beta-amyloid production” (Bristol-Myers Squibb Company, priority 2009, dated 2013).

These compounds were tested on Aβ1-42 production (assay: Cellular assay for inhibition of Aβ1-42 production (H4 APP751 SWE clone 8.20)). Details: 19 h, H4 APP751 SWE clone 8.20 cells, 19 h incubation; read-out: Activity Rating (Aβ42 cellular IC50, given as a number).
Assay type: cell-based
Description: Cellular assays for inhibition of Aβ1-40 and Aβ1-42 production
H4 cells stably transfected with APP751 containing the Swedish mutation (H4 APP751 SWE clone 8.20, developed at BMS) were maintained in log phase through twice weekly passage at a 1:20 split. For IC50 determinations, 30 μl cells (1.5×10^4 cells/well) in DMEM media containing 0.0125% BSA (Sigma A8412) were plated directly into 384-well compound plates (Costar 3709) containing 0.1 μl serially diluted compound in DMSO. Following incubation for 19 h in 5% CO2 at 37° C., plates were briefly centrifuged (1000 rpm, 5 min). A 10 μl aliquot from each well was transferred to a second assay plate (Costar 3709) for Aβ40 measurements. Antibody cocktails were freshly prepared by dilution into 40 mM Tris-HCl (pH 7.4) with 0.2% BSA and added to assay plates. For Aβ42 measurements, antibodies specific for the Aβ42 neoepitope (565, developed at BMS; conjugated to the Wallac reagent (Perkin Elmer)) and the N-terminal sequence of Aβ peptide (26D6, developed at SIBIA; conjugated to APC (Perkin Elmer)) were mixed and 20 μl of the mixture was added to each well of the incubated cell plate yielding a final concentration of 0.8 ng/well 565 and 75 ng/well 26D6. For the Aβ40 measurements, antibodies specific for the Aβ40 neoepitope (TSD, developed at BMS; conjugated to the Wallac reagent (Perkin Elmer)) and 26D6 as described above were mixed and 20 μl of the mixture was added to the 10 μl aliquots which had been removed previously from the cell plate yielding a final concentration of 1.6 ng/well TSD and 17.5 ng/well 26D6. Assay plates containing antibodies were sealed with aluminum foil and incubated overnight at 4° C. Signal was determined using a Viewlux counter (Perkin Elmer) and IC50 values determined using curve fitting in CurveMaster (Excel Fit based).

Structure (SMILES)	IC50 [nM]
Cc1ncnn1-c1ccc(Nc2nc3n(n2)CC[C@H](O)C[C@@H]3c2ccc(F)cc2)cc1F (relative stereo) [Example 156, rel-(7R,9R)-2-(3-fluoro-4-(5-methyl-1H-1,2,4-triazol-1-yl)phenylamino)-9-(4-fluorophenyl)-6,7,8,9-tetrahydro-5H-[1,2,4]triazolo[1,5-a]azepin-7-ol 2,2,2-trifluoroacetate]	122
Cc1ncnn1-c1ccc(Nc2nc3n(n2)CCC[C@H]3c2ccc(F)cc2)cc1F (single isomer, unassigned) [Example 14]	53

The next lines start with the values.

IC50 [nM]	Structure (SMILES)
140	COc1cc(Nc2nc3n(n2)C[C@H](O)[C@H](O)CC3c2ccc(F)cc2)ccc1-n1cnc(Cl)c1 (relative stereo) [Example 63, rel-(6S,7R,9R)-2-(4-(4-chloro-1H-imidazol-1-yl)-3-methoxyphenylamino)-9-(4-fluorophenyl)-6,7,8,9-tetrahydro-5H-[1,2,4]triazolo azepine-6,7-diol 2,2,2-trifluoroacetate]
9	COc1cc(Nc2nc3n(n2)CC=CC[C@H]3c2ccc(F)cc2)ccc1-n1cnc(Cl)c1 (single isomer, unassigned) [Example 2]

Same assay, conditions: 19 h, H4 APP751 SWE clone 8.20 cells, 19 h incubation; read-out: Activity Rating (based on Aβ42 cellular IC50 values)

Structure (SMILES)	IC50 [nM]
Cc1ncnn1-c1ccc(Nc2nc3n(n2)CC[C@](C)(O)C[C@@H]3c2ccc(F)cc2)cc1F (relative stereo) [Example 150, rel-(7R,9R)-2-(3-fluoro-4-(5-methyl-1H-1,2,4-triazol-1-yl)phenylamino)-9-(4-fluorophenyl)-7-methyl-6,7,8,9-tetrahydro-5H-[1,2,4]triazolo[1,5-a]azepin-7-ol 2,2,2-trifluoroacetate]	10 to 100
Cc1ncnn1-c1ccc(Nc2nc3n(n2)CC[C@@](C)(O)C[C@@H]3c2ccc(F)cc2)cc1F (relative stereo) [Example 151, rel-(7S,9R)-2-(3-fluoro-4-(5-methyl-1H-1,2,4-triazol-1-yl)phenylamino)-9-(4-fluorophenyl)-7-methyl-6,7,8,9-tetrahydro-5H-[1,2,4]triazolo[1,5-a]azepin-7-ol 2,2,2-trifluoroacetate]	10 to 100
COc1cc(Nc2nc3n(n2)CC[C@](C)(O)C[C@@H]3c2ccc(OC(F)(F)F)cc2)ccc1-n1cnc(Cl)c1 (relative stereo) [Example 152, rel-(7R,9R)-2-(4-(4-chloro-1H-imidazol-1-yl)-3-methoxyphenylamino)-7-methyl-9-(4-(trifluoromethoxy)phenyl)-6,7,8,9-tetrahydro-5H-[1,2,4]triazolo[1,5-a]azepin-7-ol 2,2,2-trifluoroacetate]	< 10
COc1cc(Nc2nc3n(n2)CC[C@@](C)(O)C[C@@H]3c2ccc(OC(F)(F)F)cc2)ccc1-n1cnc(Cl)c1 (relative stereo) [Example 153, rel-(7S,9R)-2-(4-(4-chloro-1H-imidazol-1-yl)-3-methoxyphenylamino)-7-methyl-9-(4-(trifluoromethoxy)phenyl)-6,7,8,9-tetrahydro-5H-[1,2,4]triazolo[1,5-a]azepin-7-ol 2,2,2-trifluoroacetate]	< 10
Cc1ncn(-c2ccc(Nc3nc4n(n3)CC[C@](C)(O)C[C@@H]4c3ccc(F)cc3)cc2F)n1 (relative stereo) [Example 154, rel-(7R,9R)-2-(3-fluoro-4-(3-methyl-1H-1,2,4-triazol-1-yl)phenylamino)-9-(4-fluorophenyl)-7-methyl-6,7,8,9-tetrahydro-5H-[1,2,4]triazolo[1,5-a]azepin-7-ol 2,2,2-trifluoroacetate]	10 to 100
Cc1ncn(-c2ccc(Nc3nc4n(n3)CC[C@@](C)(O)C[C@@H]4c3ccc(F)cc3)cc2F)n1 (relative stereo) [Example 155, rel-(7S,9R)-2-(3-fluoro-4-(3-methyl-1H-1,2,4-triazol-1-yl)phenylamino)-9-(4-fluorophenyl)-7-methyl-6,7,8,9-tetrahydro-5H-[1,2,4]triazolo[1,5-a]azepin-7-ol 2,2,2-trifluoroacetate]	10 to 100
Cc1ncnn1-c1ccc(Nc2nc3n(n2)CC[C@@H](O)C[C@@H]3c2ccc(F)cc2)cc1F (relative stereo) [Example 157, rel-(7S,9R)-2-(3-fluoro-4-(5-methyl-1H-1,2,4-triazol-1-yl)phenylamino)-9-(4-fluorophenyl)-6,7,8,9-tetrahydro-5H-[1,2,4]triazolo[1,5-a]azepin-7-ol 2,2,2-trifluoroacetate]	10 to 100
COc1cc(Nc2nc3n(n2)CC=CC[C@H]3c2ccc(F)cc2)ccc1-n1cnc(C)n1 (single isomer, unassigned) [Example 5]	10 to 100
COc1cc(Nc2nc3n(n2)CC=CC[C@@H]3c2ccc(F)cc2)ccc1-n1cnc(C)n1 (single isomer, unassigned) [Example 6]	10 to 100
Cc1ncnn1-c1ccc(Nc2nc3n(n2)CCC[C@@H]3c2ccc(F)cc2)cc1F (single isomer, unassigned) [Example 15]	100 to 1000
Cc1ncn(-c2ccc(Nc3nc4n(n3)CCCC[C@H]4c3ccc(F)cc3)cc2F)n1 (single isomer, unassigned) [Example 26]	10 to 100
Cc1ncn(-c2ccc(Nc3nc4n(n3)CCCC[C@@H]4c3ccc(F)cc3)cc2F)n1 (single isomer, unassigned) [Example 27]	10 to 100

Second part, the compound after the results:

IC50 [nM]	Structure (SMILES)
< 10	COc1cc(Nc2nc3n(n2)C[C@H](O)CC[C@H]3c2ccc(F)cc2)ccc1-n1cnc(Cl)c1 (relative stereo) [Example 62, rel-(6R,9S)-2-(4-(4-chloro-1H-imidazol-1-yl)-3-methoxyphenylamino)-9-(4-fluorophenyl)-6,7,8,9-tetrahydro-5H-[1,2,4]triazolo[1,5-a]azepin-6-ol 2,2,2-trifluoroacetate]
10 to 100	COc1cc(Nc2nc3n(n2)C[C@H](O)[C@H](O)C[C@H]3c2ccc(F)cc2)ccc1-n1cnc(Cl)c1 (relative stereo) [Example 64, rel-(6S,7R,9S)-2-(4-(4-chloro-1H-imidazol-1-yl)-3-methoxyphenylamino)-9-(4-fluorophenyl)-6,7,8,9-tetrahydro-5H-[1,2,4]triazolo[1,5-a]azepine-6,7-diol 2,2,2-trifluoroacetate]
< 10	COc1cc(Nc2nc3n(n2)C[C@H](O)CC[C@@H]3c2ccc(F)cc2)ccc1-n1cnc(Cl)c1 (relative stereo) [Example 65, rel-(6R,9R)-2-(4-(4-chloro-1H-imidazol-1-yl)-3-methoxyphenylamino)-9-(4-fluorophenyl)-6,7,8,9-tetrahydro-5H-[1,2,4]triazolo[1,5-a]azepin-6-ol 2,2,2-trifluoroacetate]
< 10	COc1cc(Nc2nc3n(n2)CC[C@@H](O)C[C@@H]3c2ccc(F)cc2)ccc1-n1cnc(Cl)c1 (relative stereo) [Example 66, rel-(7S,9R)-2-(4-(4-chloro-1H-imidazol-1-yl)-3-methoxyphenylamino)-9-(4-fluorophenyl)-6,7,8,9-tetrahydro-5H-[1,2,4]triazolo[1,5-a]azepin-7-ol 2,2,2-trifluoroacetate]
< 10	COc1cc(Nc2nc3n(n2)C[C@H](F)[C@H](F)C[C@H]3c2ccc(F)cc2)ccc1-n1cnc(Cl)c1 (relative stereo) [Example 91, rel-(6S,7R,9S)—N-(4-(4-chloro-1H-imidazol-1-yl)-3-methoxyphenyl)-6,7-difluoro-9-(4-fluorophenyl)-6,7,8,9-tetrahydro-5H-[1,2,4]triazolo[1,5-a]azepin-2-amine 2,2,2-trifluoroacetate]
< 10	COc1cc(Nc2nc3n(n2)CC[C@](C)(O)C[C@@H]3c2ccc(F)cc2)ccc1-n1cnc(Cl)c1 (relative stereo) [Example 147, rel-(7R,9R)-2-(4-(4-chloro-1H-imidazol-1-yl)-3-methoxyphenylamino)-9-(4-fluorophenyl)-7-methyl-6,7,8,9-tetrahydro-5H-[1,2,4]triazolo[1,5-a]azepin-7-ol 2,2,2-trifluoroacetate]
< 10	COc1cc(Nc2nc3n(n2)CC=CC[C@@H]3c2ccc(F)cc2)ccc1-n1cnc(Cl)c1 (single isomer, unassigned) [Example 3]
< 10	COc1cc(Nc2nc3n(n2)CCCC[C@H]3c2ccc(F)cc2)ccc1-n1cnc(Cl)c1 (single isomer, unassigned) [Example 17]
10 to 100	COc1cc(Nc2nc3n(n2)CCCC[C@@H]3c2ccc(F)cc2)ccc1-n1cnc(Cl)c1 (single isomer, unassigned) [Example 18]
< 10	COc1cc(Nc2nc3n(n2)CCCC[C@H]3c2ccc(Cl)cc2Cl)ccc1-n1cnc(Cl)c1 (single isomer, unassigned) [Example 20]
< 10	COc1cc(Nc2nc3n(n2)CCCC[C@@H]3c2ccc(Cl)cc2Cl)ccc1-n1cnc(Cl)c1 (single isomer, unassigned) [Example 21]
< 10	COc1cc(Nc2nc3n(n2)CCCC[C@@H]3c2ccc(F)c(F)c2)ccc1-n1cnc(Cl)c1 (single isomer, unassigned) [Example 24]
